Measurements as given in patent US11364189B2, “Method for the treatment of keratin materials using amide C-glycoside derivatives, and cosmetic composition containing same” (L'OREAL, priority 2016, dated 2022).

tested on: normal human melanocytes; assay: Depigmenting activity (reduction of melanin production) in normal human melanocytes in vitro; format: cell-based; settings: run 1, 72 hours incubation, optical density (melanin)
Protocol: The measurement of the depigmenting activity (reduction of melanin production) of compounds of formula (I) was performed by assaying normal human melanocytes in vitro as follows.
First, normal human melanocytes are cultured and distributed in wells. After 24 hours, the culture medium was replaced with a medium containing the compounds of formula (I) to be evaluated. The cells were incubated for 72 hours before measuring the final optical density, which measures the amount of melanin produced by the melanocytes. The compounds are tested at 100 μM after calibration.
Various test runs were performed and the results are collated in the following table.

| Structure (SMILES) | % Depigmentation at 100 μM (run 1) [%] |
| --- | --- |
| NC(=O)[C@@H](CO)NC(=O)C(O)[C@@H]1O[C@H](CO)[C@@H](O)[C@H](O)C1O (stereo partly shown) [Compound 5] | 31 |
| NC(=O)CNC(=O)C(O)[C@@H]1O[C@H](CO)[C@@H](O)[C@H](O)C1O (stereo partly shown) [Compound 4] | 19 |
| NC(=O)CNC(=O)C(O)[C@@H]1OC[C@@H](O)[C@H](O)C1O (stereo partly shown) [Compound 10] | 20 |
| O=C(O)c1ccc(NC(=O)C(O)C2O[C@H](CO)[C@@H](O)[C@H](O)[C@H]2O)cc1O (stereo partly shown) [Compound 1] | 13 |
| NC(=O)[C@@H](CO)NC(=O)C(O)[C@@H]1OC[C@@H](O)[C@H](O)C1O (single isomer, unassigned) [Compound 11-dia1] | 28 |
| NC(=O)CCNC(=O)C(O)[C@@H]1O[C@H](CO)[C@@H](O)[C@H](O)C1O (stereo partly shown) [Compound 7] | 34 |
| NC(=O)C1CCCN1C(=O)C(O)[C@@H]1O[C@H](CO)[C@@H](O)C(O)C1O (stereo partly shown) [Compound 6] | 29 |

same assay, conditions: run 2, 72 hours incubation, optical density (melanin)

| Structure (SMILES) | % depigmentation at 100 μM (run 2) [%] |
| --- | --- |
| CCOC(=O)[C@@H](CO)NC(=O)C(O)[C@@H]1OC[C@@H](O)[C@H](O)C1O (stereo partly shown) [Compound 12] | 20 |
| CCOC(=O)[C@@H](CO)NC(=O)C(OC(C)=O)C1OC[C@@H](OC(C)=O)[C@H](OC(C)=O)[C@H]1O (single isomer, unassigned) [Compound 20-dia1] | 23 |
| CCOC(=O)CNC(=O)C(OC(C)=O)C1OC[C@@H](OC(C)=O)[C@H](OC(C)=O)[C@H]1O (stereo partly shown) [Compound 19] | 15 |
| NC(=O)[C@@H](CO)NC(=O)C(O)[C@@H]1OC[C@@H](O)[C@H](O)C1O (single isomer, unassigned) [Compound 11-dia2] | 32 |

tested on: normal human melanocytes; assay: as above; format: cell-based; settings: 200 μM (max dose tested)

| Structure (SMILES) | % depigmentation at the max dose tested 200 μM (run 2) [%] |
| --- | --- |
| CCOC(=O)[C@@H](CO)NC(=O)C(O)[C@@H]1OC[C@@H](O)[C@H](O)C1O (stereo partly shown) [Compound 12] | 28 |
| CCOC(=O)CNC(=O)C(OC(C)=O)C1OC[C@@H](OC(C)=O)[C@H](OC(C)=O)[C@H]1O (stereo partly shown) [Compound 19] | 43 |
